SMILES strings stand for the structures.

By EC50 is commonly meant the concentration needed to bring the measured effect to its halfway point.

The target in this assay is T1, ΔF508-CFTR (Homo sapiens, UniProt P13569, DEL508-508).
T1 construct: expressed in transfected cells; host or cells: NIH3T3 mouse fibroblasts stably expressing ΔF508-CFTR for the optical, whole-cell and single-channel assays; Fisher rat epithelial (FRT) cells for Ussing chamber follow-up
As to the kind of experiment: Assays for ΔF508-CFTR correction and potentiator properties (membrane potential optical and electrophysiological methods). The following applies: CFTR modulation; for % Activity: % Efficacy; for EC50: tested using the above methods. Format: cell-based. The source says: Assays for Detecting and Measuring ΔF508-CFTR Correction and Potentiator Properties of Compounds
A) Membrane Potential Optical Methods for Assaying ΔF508-CFTR Modulation Properties of Compounds
The optical membrane potential assay utilized voltage-sensitive FRET sensors described by Gonzalez and Tsien (See, Gonzales, J. E. and R. Y. Tsien (1995) “Voltage sensing by fluorescence resonance energy transfer in single cells” Biophys J 69 (4): 1272-80, and Gonzalez, J. E. and R. Y. Tsien (1997) “Improved indicators of cell membrane potential that use fluorescence resonance energy transfer” Chem Biol 4 (4): 269-77) in combination with instrumentation for measuring fluorescence changes such as the Voltage/Ion Probe Reader (VIPR) (See, Gonzalez, J. E., K. Oades, et al. (1999) “Cell-based assays and instrumentation for screening ion-channel targets” Drug Discov Today 4 (9): 431-439).
These voltage sensitive assays are based on the change in fluorescence resonant energy transfer (FRET) between the membrane-soluble, voltage-sensitive dye, DiSBAC2 (3), and a fluorescent phospholipid, CC2-DMPE, which is attached to the outer leaflet of the plasma membrane and acts as a FRET donor. Changes in membrane potential (Vm) cause the negatively charged DiSBAC2(3) to redistribute across the plasma membrane and the amount of energy transfer from CC2-DMPE changes accordingly. The changes in fluorescence emission were monitored using VIPR™ II, which is an integrated liquid handler and fluorescent detector designed to conduct cell-based screens in 96- or 384-well microtiter plates.
To identify small molecules that correct the trafficking defect associated with ΔF508-CFTR; a single-addition HTS assay format was developed. The cells were incubated in serum-free medium for 16 hrs at 37° C. in the presence or absence (negative control) of test compound. As a positive control, cells plated in 384-well plates were incubated for 16 hrs at 27° C. to “temperature-correct” ΔF508-CFTR. The cells were subsequently rinsed 3× with Krebs Ringers solution and loaded with the voltage-sensitive dyes. To activate ΔF508-CFTR, […] and the CFTR potentiator, genistein ([…]), were added along with Cl^−-free medium to each well. The addition of Cl^−-free medium promoted Cl^− efflux in response to ΔF508-CFTR activation and the resulting membrane depolarization was optically monitored using the FRET-based voltage-sensor dyes.
To identify potentiators of ΔF508-CFTR, a double-addition HTS assay format was developed. During the first addition, a Cl^−-free medium with or without test compound was added to each well. After 22 sec, a second addition of Cl^−-free medium containing 2-10 µM forskolin was added to activate ΔF508-CFTR. The extracellular Cl^− concentration following both additions was 28 mM, which promoted Cl^− efflux in response to ΔF508-CFTR activation and the resulting membrane depolarization was optically monitored using the FRET-based voltage-sensor dyes.
• Bath Solution #1: (in mM) NaCl 160, KCl 4.5, CaCl2 2, MgCl2 1, HEPES 10, pH 7.4 with NaOH. • Chloride-free bath solution: Chloride salts in Bath Solution #1 are substituted with gluconate salts. • CC2-DMPE: Prepared as a 10 mM stock solution in DMSO and stored at −20° C. • DiSBAC2(3): Prepared as a 10 mM stock in DMSO and stored at −20° C. Cell Culture
NIH3T3 mouse fibroblasts stably expressing ΔF508-CFTR are used for optical measurements of membrane potential. The cells are maintained at 37° C. in 5% CO2 and 90% humidity in Dulbecco's modified Eagle's medium supplemented with 2 mM glutamine, 10% fetal bovine serum, 1×NEAA, β-ME, 1×pen/strep, and 25 mM HEPES in 175 cm^2 culture flasks. For all optical assays, the cells were seeded at 30,000/well in 384-well matrigel-coated plates and cultured for 2 hrs at 37° C. before culturing at 27° C. for 24 hrs. for the potentiator assay. For the correction assays, the cells are cultured at 27° C. or 37° C. with and without compounds for 16-24 hours.

T1 sequence (P13569 with tags, fused parts or gaps DEL508-508): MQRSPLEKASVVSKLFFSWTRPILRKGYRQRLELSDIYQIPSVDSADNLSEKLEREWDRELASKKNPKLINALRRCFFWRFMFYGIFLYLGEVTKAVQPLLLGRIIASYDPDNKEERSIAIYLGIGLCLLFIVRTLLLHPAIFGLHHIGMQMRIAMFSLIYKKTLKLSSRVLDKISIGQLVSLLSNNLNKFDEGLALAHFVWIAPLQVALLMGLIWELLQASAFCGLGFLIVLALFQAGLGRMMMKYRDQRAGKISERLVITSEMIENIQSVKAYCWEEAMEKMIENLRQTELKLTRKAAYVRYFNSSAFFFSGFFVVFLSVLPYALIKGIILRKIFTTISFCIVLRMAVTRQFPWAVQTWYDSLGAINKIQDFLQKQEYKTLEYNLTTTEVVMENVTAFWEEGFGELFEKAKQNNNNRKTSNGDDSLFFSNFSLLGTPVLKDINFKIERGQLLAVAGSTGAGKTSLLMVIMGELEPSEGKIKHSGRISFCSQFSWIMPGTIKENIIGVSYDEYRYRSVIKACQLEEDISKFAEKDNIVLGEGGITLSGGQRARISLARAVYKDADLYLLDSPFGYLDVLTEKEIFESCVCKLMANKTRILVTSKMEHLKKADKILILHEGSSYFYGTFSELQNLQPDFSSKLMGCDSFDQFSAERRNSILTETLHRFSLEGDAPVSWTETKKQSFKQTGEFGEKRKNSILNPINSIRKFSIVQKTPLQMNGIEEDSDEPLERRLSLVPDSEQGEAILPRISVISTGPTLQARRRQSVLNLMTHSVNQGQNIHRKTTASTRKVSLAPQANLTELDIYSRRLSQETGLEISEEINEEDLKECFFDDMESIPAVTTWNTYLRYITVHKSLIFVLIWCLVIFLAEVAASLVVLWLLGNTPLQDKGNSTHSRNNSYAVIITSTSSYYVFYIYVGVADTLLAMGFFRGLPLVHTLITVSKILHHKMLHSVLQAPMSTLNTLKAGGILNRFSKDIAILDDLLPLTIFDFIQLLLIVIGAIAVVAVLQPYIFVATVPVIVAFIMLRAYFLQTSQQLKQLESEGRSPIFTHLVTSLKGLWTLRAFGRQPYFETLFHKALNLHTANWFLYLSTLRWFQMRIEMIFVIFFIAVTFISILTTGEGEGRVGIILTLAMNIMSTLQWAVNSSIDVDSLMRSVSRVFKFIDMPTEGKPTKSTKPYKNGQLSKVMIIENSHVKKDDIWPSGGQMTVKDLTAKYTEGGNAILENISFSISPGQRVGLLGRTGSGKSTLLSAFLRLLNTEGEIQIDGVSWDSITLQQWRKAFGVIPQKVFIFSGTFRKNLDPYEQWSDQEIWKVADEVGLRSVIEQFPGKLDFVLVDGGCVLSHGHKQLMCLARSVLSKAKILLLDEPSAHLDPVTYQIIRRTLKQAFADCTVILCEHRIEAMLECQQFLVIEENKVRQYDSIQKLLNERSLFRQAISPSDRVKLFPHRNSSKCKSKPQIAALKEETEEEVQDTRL

Regarding `CCC(C(=O)Nc1nc2ccc(C)cc2s1)c1ccccc1` (centres unmarked) [compound 24], the “% Activity” value is “+++ (“+++” means >100%)” and the concentration giving a half-maximal response (EC50) lay in the range of 10 to 25 µM.
For `O=C(Nc1ncc(Cc2ccccc2)s1)C(c1ccccc1)c1ccccc1` [compound 25], the “% Activity” value was “++ (“++” means between 25% to 100%)” and the half-maximal effective concentration (EC50) is less than 10 µM.
Take `O=C(Nc1ncc(Cc2ccccc2Cl)s1)c1cccc2ccccc12` [compound 26]: the “% Activity” value is “++ (“++” means between 25% to 100%)” and the concentration giving a half-maximal response (EC50) was in the range of 10 to 25 µM.
In the same order, the values of `COc1ccc(Cc2cnc(NC(=O)C(c3ccccc3)c3ccccc3)s2)cc1` [compound 27] are “++ (“++” means between 25% to 100%)” and less than 10 µM.
Take `O=C(Nc1ncc(Cc2ccccc2Cl)s1)c1ccccc1` [compound 28]: the “% Activity” value is reported as “++ (“++” means between 25% to 100%)” and the EC50 is 10 to 25 µM.
Take `O=C(Nc1ncc(Cc2ccccc2Cl)s1)C1CCCCC1` [compound 29]: the “% Activity” value is “++ (“++” means between 25% to 100%)” and the concentration for a half-maximal effect (EC50) was less than 10 µM.
Take `O=C(Nc1ncc(Cc2cc(Cl)ccc2Cl)s1)C1CCCCC1` [compound 30]: the “% Activity” value is given as “+++ (“+++” means >100%)” and the EC50 was less than 10 µM.
Take `O=C(Cc1ccccc1)Nc1ncc(Cc2cccc(Cl)c2)s1` [compound 31]: the “% Activity” value is recorded as “++ (“++” means between 25% to 100%)” and the EC50 is less than 10 µM.
Regarding `O=C(Cc1ccccc1)Nc1ncc(Cc2ccccc2)s1` [compound 32], the “% Activity” value is “++ (“++” means between 25% to 100%)” and the EC50 was 10 to 25 µM.
Consider `O=C(Nc1ncc(Cc2ccc(Cl)cc2)s1)c1ccccc1Cl` [compound 33], for which the “% Activity” value is on record as “++ (“++” means between 25% to 100%)” and the EC50 is 10 to 25 µM.
Take `CC(C)C(C(=O)Nc1nc(-c2ccncc2)cs1)c1ccc(F)cc1F` (centres unmarked) [compound 34]: the “% Activity” value was “++ (“++” means between 25% to 100%)” and the half-maximal effective concentration (EC50) was 10 to 25 µM.
Regarding `CC(C)C(C(=O)Nc1nc(-c2ccncc2)cs1)c1ccccc1` (centres unmarked) [compound 35], the “% Activity” value is listed as “++ (“++” means between 25% to 100%)” and the EC50 lay within 10 to 25 µM.
For the compound `N#CCC(=O)Nc1ncc(Cc2cccc(Cl)c2)s1` [compound 36], the “% Activity” value is reported as “++ (“++” means between 25% to 100%)” and the half-maximal effective concentration (EC50) lay within 10 to 25 µM.
In the same order, the values of `O=C(Nc1ncc(Cc2ccccc2Cl)s1)C(c1ccccc1)c1ccccc1` [compound 37] are “+++ (“+++” means >100%)” and less than 10 µM.
Regarding `O=C(Nc1ncc(Cc2ccc(Cl)cc2)s1)C(c1ccccc1)c1ccccc1` [compound 38], the “% Activity” value is “++ (“++” means between 25% to 100%)” and the half-maximal effective concentration (EC50) is less than 10 µM.
In the same order, the values of `Cc1ccc(C(=O)Nc2nc(-c3ccc(C)cc3)c(-c3ccccc3)s2)cc1` [compound 39] are “+++ (“+++” means >100%)” and less than 10 µM.
Regarding `Cc1ccccc1C(=O)Nc1nc2c(C)cccc2s1` [compound 40], the “% Activity” value was “++ (“++” means between 25% to 100%)” and the EC50 was less than 10 µM.
Turning to `Cc1cccc2sc(NC(=O)c3ccccc3Cl)nc12` [compound 41], the “% Activity” value is recorded as “++ (“++” means between 25% to 100%)” and the EC50 was less than 10 µM.
Consider `Cc1cccc2sc(NC(=O)c3cccc(Br)c3)nc12` [compound 42], for which the “% Activity” value is “++ (“++” means between 25% to 100%)” and the half-maximal effective concentration (EC50) is less than 10 µM.
Regarding `O=C(Nc1nc(-c2ccc(Br)cc2)cs1)c1cccc(Cl)c1` [compound 43], the “% Activity” value was “++ (“++” means between 25% to 100%)” and the EC50 is less than 10 µM.
Consider `Cc1ccc(C(=O)Nc2nc(-c3ccccc3)c(C)s2)cc1` [compound 44], for which the “% Activity” value is “+++ (“+++” means >100%)” and the EC50 was in the range of 10 to 25 µM.
`Cc1ccc(-c2nc(NC(=O)c3ccc(C#N)cc3)sc2-c2ccccc2)cc1` [compound 45]: the “% Activity” value is reported as “++ (“++” means between 25% to 100%)” and the EC50 is 10 to 25 µM.
Take `O=C(Cc1ccccc1)Nc1nc(-c2cccc3ccccc23)cs1` [compound 46]: the “% Activity” value is listed as “++ (“++” means between 25% to 100%)” and the EC50 is less than 10 µM.
The like results for `Cc1ccc(C(=O)Nc2nc(-c3ccc(C)cc3)cs2)cc1` [compound 47] were, in that order, “++ (“++” means between 25% to 100%)” and 10 to 25 µM.
For `Cc1ccc(-c2csc(NC(=O)c3ccccc3)n2)cc1` [compound 48], the “% Activity” value is given as “+++ (“+++” means >100%)” and the EC50 is less than 10 µM.
Take `COc1cccc(C(=O)Nc2nc(-c3ccccc3)cs2)c1` [compound 49]: the “% Activity” value is “++ (“++” means between 25% to 100%)” and the EC50 lay in the range of 10 to 25 µM.
Regarding `CCC(=O)Nc1nc(-c2ccccc2)c(-c2ccccc2)s1` [compound 50], the “% Activity” value was “+++ (“+++” means >100%)” and the concentration giving a half-maximal response (EC50) was less than 10 µM.
Regarding `COc1ccccc1C(=O)Nc1nc(-c2ccccc2)c(-c2ccccc2)s1` [compound 51], the “% Activity” value is listed as “+++ (“+++” means >100%)” and the 50% effective concentration (EC50) was less than 10 µM.
Turning to `Cc1ccc(C(=O)Nc2nc(-c3ccccc3)c(-c3ccccc3)s2)cc1` [compound 52], the “% Activity” value is “+++ (“+++” means >100%)” and the EC50 is less than 10 µM.
In the case of `O=C(Nc1nc(-c2ccccc2)cs1)c1cccc(Cl)c1` [compound 53], the “% Activity” value is “+++ (“+++” means >100%)” and the EC50 is less than 10 µM.
With `Cc1cccc(Cc2cnc(NC(=O)c3ccccc3Cl)s2)c1` [compound 54], the “% Activity” value is “++ (“++” means between 25% to 100%)” and the EC50 was 10 to 25 µM.
On to `O=C(Nc1nc(-c2ccccc2)cs1)C1CCCCC1` [compound 55], for which the “% Activity” value was “++ (“++” means between 25% to 100%)” and the EC50 lay in the range of 10 to 25 µM.
Turning to `O=C(Nc1ncc(Cc2cccc(Cl)c2Cl)s1)C(c1ccccc1)c1ccccc1` [compound 56], the “% Activity” value is on record as “++ (“++” means between 25% to 100%)” and the EC50 was less than 10 µM.
For `O=C(Nc1ncc(Cc2cc(Cl)ccc2Cl)s1)C(c1ccccc1)c1ccccc1` [compound 57], the “% Activity” value is “++ (“++” means between 25% to 100%)” and the EC50 was less than 10 µM.
In the same order, the values of `CCC(C(=O)Nc1nc(-c2ccncc2)cs1)c1ccccc1` (centres unmarked) [compound 58] are “++ (“++” means between 25% to 100%)” and 10 to 25 µM.
For `O=C(O)c1ccccc1C(=O)Nc1nc(-c2ccccc2)c(-c2ccccc2)s1` [compound 59], the “% Activity” value was “++ (“++” means between 25% to 100%)” and the EC50 lay within 10 to 25 µM.
On to `CC(CC(=O)O)CC(=O)Nc1nc(-c2ccccc2)c(-c2ccccc2)s1` (centres unmarked) [compound 60], for which the “% Activity” value was “++ (“++” means between 25% to 100%)” and the half-maximal effective concentration (EC50) was 10 to 25 µM.
In the case of `O=C(O)CCCC(=O)Nc1nc(-c2ccccc2)c(-c2ccccc2)s1` [compound 61], the “% Activity” value is listed as “++ (“++” means between 25% to 100%)” and the EC50 was in the range of 10 to 25 µM.
For the compound `O=C(Nc1nc(-c2ccccc2)c(-c2ccccc2)s1)c1c(F)cccc1F` [compound 62], the “% Activity” value is listed as “+++ (“+++” means >100%)” and the EC50 is less than 10 µM.
On to `CCc1ccccc1OCC(=O)Nc1nc2ccccc2s1` [compound 63], for which the “% Activity” value is on record as “+++ (“+++” means >100%)” and the concentration giving a half-maximal response (EC50) lay in the range of 10 to 25 µM.

Values taken from patent publication US9249131B2, “Modulators of ATP-binding cassette transporters” (Vertex Pharmaceuticals Incorporated, priority 2003, dated 2016).
